{
  "source": "patent US8552183B2",
  "about": "“Process for the covalent coupling of two molecules by means of a diels-alder reaction with inverse electron requirement” (Deutsches Krebsforschungszentrum Stiftung des Offentlichen …, priority 2006, dated 2013)",
  "assay_type_in_all_cases": "physicochemical",
  "key": {"[1]": {"assay": "DARinv kinetic measurement, tetrazines with dienophile 14", "conditions": "second order", "method": "(§1) Exploratory kinetic DARinv measurements for the produced dienes and dienophiles show the expected broad reaction behavior.\n(§2) Legend: rate constants for the reaction for the reaction DARinv of dienes with dienophiles in liter mol^−1s^−1; n.d. means not yet measured. n.d(+) means: reaction is carried out, however, is too slow for the measurements, DAR adduct is characterized.\n(§3) The conduction is very simple since the tetrazines have an absorption maximum of sufficient intensity at 520 nm whose reduction can be very well traced by means of photometry. The kinetic analysis supplies a rate law of second order."}, "[2]": {"assay": "DARinv kinetic measurement, tetrazines with dienophile 17", "conditions": "second order", "method": "as §1, §2, §3"}, "[3]": {"assay": "DARinv kinetic measurement, tetrazines with dienophile 26", "conditions": "second order", "method": "as §1, §2, §3"}, "[4]": {"assay": "DARinv kinetic measurement, tetrazines with dienophile 27", "method": "as §1, §2, §3"}, "[5]": {"assay": "DARinv kinetic measurement, tetrazines with dienophile 13 (Reppe-ester)", "conditions": "second order", "method": "as §1, §2, §3"}, "[6]": {"assay": "DARinv kinetic measurement, tetrazines with dienophile 16", "conditions": "second order", "method": "as §1, §2, §3"}, "[7]": {"assay": "DARinv kinetic measurement, tetrazines with dienophile 28 (photometry at 520 nm)", "conditions": "second order", "method": "as §1, §2, §3"}, "[8]": {"assay": "DARinv of a methylene-group dienophile, reaction time", "conditions": "room temperature; reacts very slowly", "method": "A twofold substituted double bond as occurring in fatty acids or lipids, only reacts very slowly under normal conditions in the sense of DARinv. A methylene group, such as in the perilla alcohol, also reacts very slowly at room temperature (60 hours) in the sense of the DARinv thereby forming the expected adduct. However, as soon as a double bond is integrated within a carbocyclic ring system, it reacts much more rapidly than dienophile, the reactivity decreasing with increasing ring size, starting with the cyclopropene, and passing through a minimum with cyclohexene. In ring systems greater than seven rings, triple bonds can also react as inverse dienophiles."}, "[9]": {"conditions": "with dienophile 27, lower part of Table 2 (drawing 12)"}, "[10]": {"conditions": "with dienophile 27, upper part of Table 2 (drawing 3)"}},
  "data": [
    {"compound": "O=C(NCCO)c1nnc(C(=O)NCCO)nn1", "values": [
      {"measurement": "rate constant k of DARinv", "setting": "[1]", "result": 0.69, "unit": "L/mol/s"},
      {"measurement": "rate constant k of DARinv", "setting": "[2]", "result": 0.06, "unit": "L/mol/s"},
      {"measurement": "rate constant k of DARinv", "setting": "[3]", "result": 0.0053, "unit": "L/mol/s"},
      {"measurement": "rate constant k of DARinv", "setting": "[4]; [9]", "result": 0.008, "unit": "L/mol/s"},
      {"measurement": "rate constant k of DARinv", "setting": "[4]; [10]", "result": 0.0067, "unit": "L/mol/s"},
      {"measurement": "rate constant k of DARinv", "setting": "[5]", "result": 0.2, "unit": "L/mol/s"},
      {"measurement": "rate constant k of DARinv", "setting": "[6]", "result": 0.11, "unit": "L/mol/s"},
      {"measurement": "rate constant k of DARinv", "setting": "[7]", "result": 0.023, "unit": "L/mol/s"}
    ]},
    {"compound": "COC(=O)CNC(=O)c1nnc(C(=O)NCC(=O)OC)nn1", "values": [
      {"measurement": "rate constant k of DARinv", "setting": "[1]", "result": 0.048, "unit": "L/mol/s"},
      {"measurement": "rate constant k of DARinv", "setting": "[2]", "result": 0.18, "unit": "L/mol/s"},
      {"measurement": "rate constant k of DARinv", "setting": "[3]", "result": 0.0056, "unit": "L/mol/s"},
      {"measurement": "rate constant k of DARinv", "setting": "[4]; [9]", "result": 0.0073, "unit": "L/mol/s"},
      {"measurement": "rate constant k of DARinv", "setting": "[4]; [10]", "result": 0.0069, "unit": "L/mol/s"},
      {"measurement": "rate constant k of DARinv", "setting": "[5]", "result": 0.028, "unit": "L/mol/s"},
      {"measurement": "rate constant k of DARinv", "setting": "[6]", "result": 0.44, "unit": "L/mol/s"},
      {"measurement": "rate constant k of DARinv", "setting": "[7]", "result": 0.028, "unit": "L/mol/s"}
    ]},
    {"compound": "COC(=O)CNC(=O)c1nnc(C(=O)N(C)C)nn1", "values": [
      {"measurement": "rate constant k of DARinv", "setting": "[3]", "result": "<10^−4 liter mol^−1s^−1"},
      {"measurement": "rate constant k of DARinv", "setting": "[5]", "result": 0.014, "unit": "L/mol/s"},
      {"measurement": "rate constant k of DARinv", "setting": "[7]", "result": "<10^−4 liter mol^−1s^−1"}
    ]},
    {"compound": "COC(=O)c1nnc(C(=O)OC)nn1", "values": [
      {"measurement": "rate constant k of DARinv", "setting": "[1]", "result": 1.63, "unit": "L/mol/s"},
      {"measurement": "rate constant k of DARinv", "setting": "[2]", "result": 0.13, "unit": "L/mol/s"},
      {"measurement": "rate constant k of DARinv", "setting": "[3]", "result": 0.0028, "unit": "L/mol/s"},
      {"measurement": "rate constant k of DARinv", "setting": "[4]; [9]", "result": 0.0048, "unit": "L/mol/s"},
      {"measurement": "rate constant k of DARinv", "setting": "[4]; [10]", "result": 0.0036, "unit": "L/mol/s"},
      {"measurement": "rate constant k of DARinv", "setting": "[5]", "result": 3.4, "unit": "L/mol/s"},
      {"measurement": "rate constant k of DARinv", "setting": "[6]", "result": 0.44, "unit": "L/mol/s"},
      {"measurement": "rate constant k of DARinv", "setting": "[7]", "result": 0.022, "unit": "L/mol/s"}
    ]},
    {"compound": "C=C(C)[C@@H]1CC=C(CO)CC1", "note": "[perilla alcohol]", "values": [
      {"measurement": "reaction time of DARinv forming the expected adduct", "setting": "[8]", "result": 60, "unit": "h"}
    ]}
  ]
}
